Tests used:
[1] = Chemiluminescence properties of NIR luminophores under physiological conditions; format: physicochemical; conditions: for ΦCL (chemiluminescence efficiency) / λ maxCL (maximal chemiluminescence emission): physiological conditions
Method: All reactions requiring anhydrous conditions were performed under an argon atmosphere. All reactions were carried out at room temperature unless stated otherwise. Chemicals and solvents were either A.R. grade or purified by standard techniques. TLC: silica gel plates Merck 60 F254: compounds were visualized by irradiation with UV light. Column chromatography (FC): silica gel Merck 60 (particle size 0.040-0.063 mm), eluent given in parentheses. RP-HPLC: C18 5u, 250×4.6 mm, eluent given in parentheses. Preparative RP-HPLC: C18 5u, 250×21 mm, eluent given in parentheses. ^1H-NMR spectra were recorded using Bruker Avance operated at 400 MHz. ^13C-NMR spectra were recorded using Bruker Avance operated at 100 MHz. Chemical shifts were reported in ppm on the δ scale relative to a residual solvent (CDCl3: δ=7.26 for ^1H-NMR and 77.16 for ^13C-NMR, DMSO-d6: δ=2.50 for ^1H-NMR and 39.52 for ^13C-NMR). Mass spectra were measured on Waters Xevo TQD. Fluorescence and chemiluminescence were recorded on Molecular Devices Spectramax i3x. Fluorescence quantum yield was determined using Hamamatsu Quantaurus-QY. All reagents, including salts and solvents, were purchased from Sigma-Aldrich. Light irradiation for photochemical reactions: LED PAR38 lamp (19 W, 3000K).
Next, we incubated our luminophores under physiological conditions and evaluated their properties. […] As expected, the chemiluminescence emission spectra correlate with the fluorescence spectra of their corresponding decomposition benzoate esters products. […] This difference is attributed to the reduced pKa of Luminophore 2, which accelerate the generation of enriched phenolate population that spontaneously undergoes the chemiexcitation process. The chemiluminescence efficiency of Luminophores 1 and 2 was calculated to be 0.82% and 1.12% respectively. These outstanding results encouraged us to investigate the imaging features of our NIR luminophores to serve as a reporter both in-vitro and in-vivo bioassays.

[2] = target: T1, β-galactosidase in HEK293 cells transfected with the LacZ gene (Escherichia coli, UniProt P00722); experiment: Chemiluminescence imaging of HEK293-LacZ versus HEK293-wt cells; format: cell-based
T1 construct: expressed in transfected cells; host or cells: HEK293 (HEK293-LacZ)
Method: FIGS. 1A-1C show the chemiluminescence kinetic profiles of probes 1a [10 μM] in PBS, pH 7.4, in the presence and absence of 1.5 units/mL β-galactosidase at 37° C. (1A); chemiluminescence imaging of Probe 1a [5 μM] in HEK293 cells (1B); and quantification of signal intensities evolving from HEK293 cells (1C).
Images were obtained following 20 minutes incubation with cell culture medium containing Probe 3a (5 μM), and were recorded on BioSpace Lab PhotonIMAGER™.
(§1) The spectral performance of Probe 1a was evaluated by measuring the chemiluminescent signal over time while its incubation took place under physiological conditions in the presence and absence of β-galactosidase (FIG. 1A). […] The emission spectra of 1a overlaps with its parent Luminophore 1 as expected. Next, we investigated the feasibility of Probe 1a to image the over expression of endogenous β-galactosidase in HEK293 cells transfected with the LacZ gene. We incubated Probe 1a with HEK293-LacZ and HEK293-wt cells. […] The chemiluminescence signal was quantified as depicted in FIG. 1C.
In order to investigate the feasibility of Probe 3a to monitor the enzymatic activity of β-galactosidase in vitro, the probe [1 μM] was incubated for 30 minutes with transfected HEK293-LacZ cell that overexpress the enzyme β-galactosidase, and under the same conditions with HEK293-wt cell as a control. The chemiluminescent signal was collected for 4 hours from the samples and quantified as depicts in FIG. 3.

β-galactosidase = experiment: Chemiluminescence kinetic profile of probes in presence and absence of β-galactosidase; format: biochemical; conditions: 37° C.
Method: FIGS. […] (1A); chemiluminescence imaging of Probe 1a [5 μM] in HEK293 cells (1B); and quantification of signal intensities evolving from HEK293 cells (1C).
as §1
The study in which the feasibility of Probe 1a to image the over expression of endogenous β-galactosidase in HEK293 cells transfected with the LacZ gene was repeated using Probe 3a, corresponding to Luminophore 3 wherein the phenol is masked with a β-galactosidase substrate as the responsive protecting group, and a short polyethylene-glycol ester is introduced instead of the […] acid residue, considering that cell permeability is reduced by negatively charged species.

endogenous H2O2 = experiment: In-vivo imaging of endogenous H2O2 in peritoneal cavity of mice, LPS-induced peritonitis
Method: (§2) FIGS. 4A-4C show the chemiluminescent kinetic profile of Probe 2a [10 μM] in serum, in the presence and absence of H2O2[50 μM] (4A); in-vivo imaging of endogenous H2O2 in the peritoneal cavity of mice during an LPS-induced inflammatory response, using probes 2a and 2b. Images of mice were recorded on BioSpace Lab PhotonIMAGER™. Group A: 1 mL of 0.1 mg/mL LPS was injected into the peritoneal cavity of mice, followed 4 h later by an IP injection of Probe 2a [100 μM, 100 μL in PBS]. Group B: 1 mL of 0.1 mg/mL LPS was injected into the peritoneal cavity of mice, followed 4 h later by an IP injection of Probe 2b [100 μM, 100 μL in PBS]. Group C: 1 mL PBS 7.4 was injected into the peritoneal cavity of mice, followed 4 h later by an IP injection of Probe 2a [100 μM, 100 μL in PBS 7.4] (4B); and quantification of signal intensities evolved from each group of mice (4C).
Since we established that our luminophores can serve as chemiluminescence reporter for in-vitro imaging we wanted to test their ability to image a whole animal. We tested the ability of Probe 2a to detect endogenous H2O2 by using a mouse model peritonitis that was induced by intraperitoneal injection of lipopolysaccharide (LPS). […] Three groups of mice were applied: (A) mice that were treated with LPS followed by the injection of probe 2a; (B) mice that were treated with LPS followed by the injection of Probe 2b; and (C) mice that were treated with vehicle control (PBS 7.4) followed by the injection of Probe 2a.
After 1 minute, a ratio of 19 was observed comparing the signal intensities of LPS treated and non-LPS treated mice which were injected with Probe 2a (groups A and C).

[3] = Chemiluminescence kinetic profile of probe in presence and absence of H2O2; conditions: probe 10 μM in serum, presence vs absence of H2O2 50 μM
Method: as §2
At first, we wanted evaluated the ability of Probe 2a to detect H2O2, therefore we incubated Probe 2a in the presence and absence of H2O2 and monitored the emitted light.

[4] = probe 1 μM, 30 minutes incubation

T1 sequence (P00722 whole entry): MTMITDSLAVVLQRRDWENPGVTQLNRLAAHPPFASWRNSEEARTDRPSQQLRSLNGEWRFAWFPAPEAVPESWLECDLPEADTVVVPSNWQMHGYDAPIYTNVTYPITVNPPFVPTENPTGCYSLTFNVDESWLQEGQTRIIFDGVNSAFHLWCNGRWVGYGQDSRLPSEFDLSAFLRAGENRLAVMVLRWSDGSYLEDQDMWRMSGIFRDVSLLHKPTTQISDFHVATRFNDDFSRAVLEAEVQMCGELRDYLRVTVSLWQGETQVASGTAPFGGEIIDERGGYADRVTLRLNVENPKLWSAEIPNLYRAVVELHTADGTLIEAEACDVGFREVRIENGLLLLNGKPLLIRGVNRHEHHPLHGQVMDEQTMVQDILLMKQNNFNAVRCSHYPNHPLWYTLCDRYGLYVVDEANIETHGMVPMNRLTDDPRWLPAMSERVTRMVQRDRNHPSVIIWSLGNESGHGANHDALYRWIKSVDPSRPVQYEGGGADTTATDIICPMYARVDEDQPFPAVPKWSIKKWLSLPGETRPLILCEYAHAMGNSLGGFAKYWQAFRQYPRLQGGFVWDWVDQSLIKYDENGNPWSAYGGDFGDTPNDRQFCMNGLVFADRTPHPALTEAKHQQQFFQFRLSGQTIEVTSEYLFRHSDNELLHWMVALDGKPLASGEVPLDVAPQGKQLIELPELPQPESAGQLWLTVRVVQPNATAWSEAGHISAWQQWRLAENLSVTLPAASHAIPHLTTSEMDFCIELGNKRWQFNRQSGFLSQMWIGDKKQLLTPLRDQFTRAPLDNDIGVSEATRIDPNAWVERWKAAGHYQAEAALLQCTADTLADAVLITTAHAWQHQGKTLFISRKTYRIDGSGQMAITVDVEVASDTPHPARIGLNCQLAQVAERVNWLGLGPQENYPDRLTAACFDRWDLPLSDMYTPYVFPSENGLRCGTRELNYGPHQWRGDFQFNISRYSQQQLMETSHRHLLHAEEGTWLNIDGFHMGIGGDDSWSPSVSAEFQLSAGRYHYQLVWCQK

Row | SMILES | pKa [1] | ΦCL (chemiluminescence efficiency) [1] [%] | λ maxCL (maximal chemiluminescence emission) [1] [nm] | further results
1 | COC1(c2cc(O)ccc2/C=C/C2=CC(=C(C#N)C#N)c3ccccc3O2)OOC12C1CC3CC(C1)CC2C3 (stereo not drawn) [Luminophore 1] | ~8.8 | 0.82 | 660 | 
2 | COC1(c2cc(O[C@@H]3OC(CO)[C@H](O)C(O)C3O)ccc2/C=C/C2=CC(=C(C#N)C#N)c3ccccc3O2)OOC12C1CC3CC(C1)CC2C3 (stereo partly drawn) [Probe 1a] |  |  |  | ratio between signal intensities of transfected cells to wild type cells ([2]; HEK293-LacZ vs HEK293-wt, probe 5 μM): 14; chemiluminescent signal in HEK293-LacZ cells ([2]; probe 5 μM): intense chemiluminescent signal; chemiluminescent signal in HEK293-wt cells ([2]; probe 5 μM): negligible chemiluminescent signal; signal-to-noise ratio (β-galactosidase; probe 10 μM in PBS pH 7.4, presence vs absence of 1.5 units/mL β-galactosidase): 17
3 | COC1(c2cc(B3OC(C)(C)C(C)(C)O3)c(/C=C/C(=O)O)cc2/C=C/C2=CC(=C(C#N)C#N)c3ccccc3O2)OOC12C1CC3CC(C1)CC2C3 (stereo not drawn) [Probe 2a] |  |  |  | chemiluminescence signal right after probe injection (endogenous H2O2; group A (LPS + Probe 2a) compared with groups B and C): efficient chemiluminescence signal; signal ratio, LPS treated mice injected with Probe 2a vs Probe 2b (endogenous H2O2; groups A and B, IP probe 100 μM, 100 μL in PBS, 4 h after LPS): 45; ratio of signal intensities, LPS treated vs non-LPS treated mice (endogenous H2O2; groups A and C, IP probe 100 μM, 100 μL in PBS, 4 h after LPS or PBS, after 1 minute): 19; signal-to-noise ratio [3]: 57
4 | COCCOCCOCCOCCOC(=O)/C=C/c1cc(/C=C/C2=C(C#N)C(=C(C#N)C#N)OC2(C)C)c(C2(OC)OOC23C2CC4CC(C2)CC3C4)cc1OCc1ccc(O[C@@H]2OC(CO)[C@H](O)[C@H](O)C2O)cc1 (stereo partly drawn) [Probe 3a] |  |  |  | signal ratio between transfected cells to wild type ([2]; HEK293-LacZ vs HEK293-wt, probe 1 μM incubated 30 minutes, signal collected 4 hours): 17; chemiluminescent signal in HEK293-LacZ cells [2, 4]: intense chemiluminescent signal; chemiluminescent signal in HEK293-wt cells [2, 4]: unneglectable chemiluminescent signal; signal-to-noise ratio (β-galactosidase; probe 1 μM in PBS (100 mM) 7.4 with 10% serum, presence vs absence of β-galactosidase 1.5 EU/mL): 43

The next lines start with results.

Row | pKa [1] | ΦCL (chemiluminescence efficiency) [1] [%] | λ maxCL (maximal chemiluminescence emission) [1] [nm] | SMILES | further results
5 | 7.35 | 1.12 | 690 | COC1(c2cc(O)c(/C=C/C(=O)O)cc2/C=C/C2=CC(=C(C#N)C#N)c3ccccc3O2)OOC12C1CC3CC(C1)CC2C3 (stereo not drawn) [Luminophore 2] | 
6 | 7.71 | 0.70 | 670 | COC1(c2cc(O)c(/C=C/C(=O)O)cc2/C=C/C2=C(C#N)C(=C(C#N)C#N)OC2(C)C)OOC12C1CC3CC(C1)CC2C3 (stereo not drawn) [Luminophore 3] | 
7 | 6.72 | 0.95 | 730 | COC1(c2ccc(/C=C/C3=CC(=C(C#N)C#N)c4ccccc4O3)c(O)c2Cl)OOC12C1CC3CC(C1)CC2C3 (stereo not drawn) [Luminophore 4] | 
